The values that follow come from patent US11186588B2 (AYUMI PHARMACEUTICAL CORPORATION, priority 2017, dated 2021).

This assay has as its target Recombinant BRD4 (44-168) protein (Homo sapiens (Human), UniProt O60885). As to the kind of experiment: BRD4-H4KAc4 binding assay (amplified luminescence proximity homogeneous assay, AlphaScreen). As to the method: In order to evaluate BRD4 inhibitory activity of the present compounds, BRD4-H4KAc4 binding assay was carried out by an amplified luminescence proximity homogeneous assay. The specific method is described below.
H4KAc4 peptide (available from Toray Research Center, Inc., sequence SGRGK(Ac)GGK(Ac)GLGK(Ac)GGAK(Ac)RHR-K(Biotin)-NH2) was dissolved in 1×Assay buffer to prepare 1 mM H4KAc4 peptide stock solution.
N-terminal His tag/C-terminal FLAG tag-fused type Recombinant BRD4 (44-168) protein (available from Active Motif, Cat No. 31380) was diluted with 1×Assay buffer to 1,250-fold to prepare 250 nM BRD4 solution.
1% DMSO solution (control) and 2 μL of each compound solution in each concentration were added to each well of AlphaPlate-384 (from PerkinElmer, Cat No. 6008350). Next, 2 μL of 250 nM BRD4 solution was added to each well of AlphaPlate-384. Further, 2 μL of 250 nM H4KAc4 peptide solution was added to each well of AlphaPlate-384. After addition of the 250 nM H4KAc4 peptide solution, the mixture was allowed to stand at room temperature under light shielding for 60 minutes, and 4 μL of AlphaScreen beads were added to each well of AlphaPlate-384. After addition of the AlphaScreen beads, the mixture was allowed to stand at room temperature under light shielding for 60 minutes, emission at 520-620 nm upon excitation at 680 nm was detected by EnVision multilabel counter (from PerkinElmer), and binding of BRD4 and H4KAc4 was detected. Incidentally, the evaluation of each compound was carried out in duplicate (2 well per 1 compound).
The BRD4 inhibition rate (%) was calculated by the following equation using Microsoft EXCEL 2010. BRD4 inhibition rate (%)=100−{(luminescence intensity average value of each compound added well)−(average value of luminescence intensity of blank well))/(average value of luminescence intensity of control well)−(average value of luminescence intensity of blank well)}×100
(Alpha assays give light when donor and acceptor beads are brought close together.)

Each structure is given as a SMILES string. Like-named read-outs stand apart in the source and are kept apart here.

A word on the inhibition: it is the change of the read-out against control, counted positive when it falls. For the compound `Cc1sc2c(c1C)C(c1ccc(Cl)cc1)=NNc1nnc(C)n1-2` [Example 1, 4-(4-chlorophenyl)-2,3,9-trimethyl-6H-thieno[2,3-e][1,2,4]triazolo[3,4-c][1,2,4]triazepine], the inhibition at 10 µM (10 uM) amounted to 99.9%.

Turning to `COc1ccc(CN2N=C(c3ccc(Cl)cc3)c3c(sc(C)c3C)-n3c(C)nnc32)cc1` [Example 2, 4-(4-chlorophenyl)-6-(4-methoxybenzyl)-2,3,9-trimethyl-6H-thieno[2,3-e][1,2,4]triazolo[3,4-c][1,2,4]triazepine], the inhibition at 10 µM (10 uM) is 100%.

Regarding `Cc1sc2c(c1C)C(c1ccc(Cl)cc1)=NN(Cc1cccnc1)c1nnc(C)n1-2` [Example 4, 4-(4-chlorophenyl)-2,3,9-trimethyl-6-(pyridin-3-ylmethyl)-6H-thieno[2,3-e][1,2,4]triazolo[3,4-c][1,2,4]triazepine], the inhibition at 10 µM (10 uM) was found to be 100%.

In the case of `Cc1sc2c(c1C)C(c1ccc(Cl)cc1)=NN(C(=O)Nc1ccccc1)c1nnc(C)n1-2` [Example 15, 4-(4-Chlorophenyl)-2,3,9-trimethyl-N-phenyl-6H-thieno[2,3-e][1,2,4]triazolo[3,4-c][1,2,4]triazepine-6-carboxamide], the inhibition at 10 µM (10 uM) stood at 22.3%.

Regarding `Cc1sc2c(c1C)C(c1ccc(Cl)cc1)=NN(Cc1ccccc1C(F)(F)F)c1nnc(C)n1-2` [Example 17, 4-(4-chlorophenyl)-2,3,9-trimethyl-6-(2-(trifluoromethyl)benzyl)-6H-thieno[2,3-e][1,2,4]triazolo[3,4-c][1,2,4]triazepine], for the setting “10 uM”, the inhibition at 10 µM amounted to 69.7%.

Consider `Cc1sc2c(c1C)C(c1ccc(Cl)cc1)=NN(CCCc1ccccc1)c1nnc(C)n1-2` [Example 20, 4-(4-chlorophenyl)-2,3,9-trimethyl-6-(3-phenylpropyl)-6H-thieno[2,3-e][1,2,4]triazolo[3,4-c][1,2,4]triazepine], for which the inhibition at 10 µM (10 uM) amounted to 82.2%.

Consider `COc1ccc(CN2N=C(c3ccccc3)c3c(sc(C)c3C)-n3c(C)nnc32)cc1` [Example 28, 6-(4-methoxybenzyl)-2,3,9-trimethyl-4-phenyl-6H-thieno[2,3-e][1,2,4]triazolo[3,4-c][1,2,4]triazepine], for which the inhibition at 10 µM (10 uM) was found to be 101%.

Consider `Cc1sc2c(c1C)C(c1ccccc1)=NN(Cc1cccnc1)c1nnc(C)n1-2` [Example 30, 2,3,9-trimethyl-4-phenyl-6-(pyridin-3-ylmethyl)-6H-thieno[2,3-e]-[1,2,4]triazolo[3,4-c][1,2,4]triazepine], for which the inhibition at 10 µM (10 uM) stood at 101%.

In the case of `Cc1sc2c(c1C)C(c1ccccc1)=NN(Cc1ccncc1)c1nnc(C)n1-2` [Example 32, 2,3,9-trimethyl-4-phenyl-6-(pyridin-4-ylmethyl)-6H-thieno[2,3-e][1,2,4]triazolo[3,4-c][1,2,4]triazepine], the inhibition at 10 µM (10 uM) was 100%.

Consider `Cc1sc2c(c1C)C(c1ccc(Cl)cc1)=NN(C(=O)NCc1ccccc1)c1nnc(C)n1-2` [Example 35, N-benzyl-4-(4-chlorophenyl)-2,3,9-trimethyl-6H-thieno[2,3-e][1,2,4]triazolo[3,4-c][1,2,4]triazepine-6-carboxamide], for which, under “10 uM”, the inhibition at 10 µM was 6.6%.

As to `Cc1sc2c(c1C)C(c1ccc(Cl)cc1)=NN(Cc1ccc(Cl)nc1)c1nnc(C)n1-2` [Example 37, 4-(4-chlorophenyl)-6-((6-chloropyridin-3-yl)methyl)-2,3,9-trimethyl-6H-thieno[2,3-e][1,2,4]triazolo[3,4-c][1,2,4]triazepine], the inhibition at 10 µM (10 uM) is 100%.

For the compound `COc1cccnc1CN1N=C(c2ccc(Cl)cc2)c2c(sc(C)c2C)-n2c(C)nnc21` [Example 54, 4-(4-chlorophenyl)-6-((3-methoxypyridin-2-yl)methyl)-2,3,9-trimethyl-6H-thieno[2,3-e][1,2,4]triazolo[3,4-c][1,2,4]triazepine], the inhibition at 10 µM (10 uM) was 99.9%.

For `Cc1nnc2n1-c1sccc1C(c1ccc(Cl)cc1)=NN2` [Example 59, 4-(4-chlorophenyl)-9-methyl-6H-thieno[2,3-e][1,2,4]triazolo[3,4-c][1,2,4]triazepine], the inhibition at 10 µM came to 100%.

For `Cc1nnc2n1-c1sccc1C(c1ccc(Cl)cc1)=NN2Cc1ccccn1` [Example 62, 4-(4-chlorophenyl)-9-methyl-6-(pyridin-2-ylmethyl)-6H-thieno[2,3-e][1,2,4]triazolo[3,4-c][1,2,4]triazepine], the inhibition at 10 µM (10 uM) worked out at 100%.

For `COc1ccc(CN2N=C(c3ccc(Cl)cc3)c3c(C)csc3-n3c(C)nnc32)cc1` [Example 66, 4-(4-chlorophenyl)-6-(4-methoxybenzyl)-3,9-dimethyl-6H-thieno[2,3-e][1,2,4]triazolo[3,4-c][1,2,4]triazepine], the inhibition at 10 µM (10 uM) amounted to 100%.

As to `COc1ccc(CN2N=C(c3ccc(Cl)cc3)c3cccnc3-n3c(C)nnc32)cc1` [Example 67, 5-(4-chlorophenyl)-7-(4-methoxybenzyl)-10-methyl-7H-pyrido[2,3-e][1,2,4]triazolo[3,4-c][1,2,4]triazepine], the inhibition at 10 µM (10 uM) stood at 100%.

For the compound `COc1ccc(CN2N=C(c3ccc(Cl)cc3)c3c(sc(C)c3C)-n3c(CO)nnc32)cc1` [Example 68, (4-(4-chlorophenyl)-6-(4-methoxybenzyl)-2,3-dimethyl-6H-thieno[2,3-e][1,2,4]triazolo[3,4-c][1,2,4]triazepin-9-yl)methanol], the inhibition at 10 µM (10 uM) came out at 19.2%.

For `COc1ccc(CN2N=C(c3ccc(Cl)cc3)c3c(sc(C)c3C)-n3c2nnc3C(F)(F)F)cc1` [Example 69, 4-(4-chlorophenyl)-6-(4-methoxybenzyl)-2,3-dimethyl-9-(trifluoromethyl)-6H-thieno[2,3-e][1,2,4]triazolo[3,4-c][1,2,4]triazepine], where the note is “10 uM”, the inhibition at 10 µM was 52%.

For `Cc1sc2c(c1C)C(c1ccccc1Cl)=NN(Cc1cccnc1)c1nnc(C)n1-2` [Example 72, 4-(2-chlorophenyl)-2,3,9-trimethyl-6-(pyridin-3-ylmethyl)-6H-thieno[2,3-e][1,2,4]triazolo[3,4-c][1,2,4]triazepine], where the note is “10 uM”, the inhibition at 10 µM amounted to 100%.

Take `COc1ccc(C2=NN(Cc3cccnc3)c3nnc(C)n3-c3sc(C)c(C)c32)cc1` [Example 76, 4-(4-methoxyphenyl)-2,3,9-trimethyl-6-(pyridin-3-ylmethyl)-6H-thieno[2,3-e][1,2,4]triazolo[3,4-c][1,2,4]triazepine]: for the setting “10 uM”, the inhibition at 10 µM was 100%.

`Cc1sc2c(c1C)C(c1ccc(Cl)cc1)=NN(Cc1cccnc1C(=O)O)c1nnc(C)n1-2` [Example 84, 3-((4-(4-chlorophenyl)-2,3,9-trimethyl-6H-thieno[2,3-e][1,2,4]triazolo[3,4-c][1,2,4]triazepin-6-yl)methyl)picolinic acid]: the inhibition at 10 µM (10 uM) amounted to 100%.

For the compound `CCNC(=O)c1ncccc1CN1N=C(c2ccc(Cl)cc2)c2c(sc(C)c2C)-n2c(C)nnc21` [Example 85, 3-((4-(4-chlorophenyl)-2,3,9-trimethyl-6H-thieno[2,3-e][1,2,4]triazolo[3,4-c][1,2,4]triazepin-6-yl)methyl)-N-ethylpicolinamide], for the setting “10 uM”, the inhibition at 10 µM was determined as 13.3%.

Turning to `Cc1sc2c(c1C)C(c1ccc(Cl)cc1)=NN(C(=O)Nc1ccccc1)c1nnc(C)n1-2` [Example 91, 4-(4-chlorophenyl)-2,3,9-trimethyl-N-phenyl-6H-thieno[2,3-e][1,2,4]triazolo[3,4-c][1,2,4]triazepine-6-carboxamide], the “BRD4-H4KAc4 binding % of inhibition@10 uM” value (10 uM) was found to be 22.4%.
